Values quoted from earlier work as cited in patent US20210169839A1, “PEDIATRIC IMMEDIATE-RELEASE FORMULATION OF THE POTASSIUM CHANNEL OPENER EZOGABINE” (Xenon Pharmaceuticals Inc., priority 2019, published 2021).
Like-named read-outs stand apart in the source and are kept apart here.

Legend:
KCNQ2-DEE [1] = system: KCNQ2-DEE
rodent seizure models = conditions: battery of rodent seizure models
KCNQ2-DEE [2] = system: KCNQ2-DEE; remark: listed apart in the source

Q: For `CCOC(=O)Nc1ccc(NCc2ccc(F)cc2)cc1N` [Ezogabine, 2-amino-4-(4-fluorobenzylamino)-1-ethoxycarbonylaminobenzene], which “improvements in development or cognition” value (KCNQ2-DEE [1]; eight children with KCNQ2-DEE) is on record?
A: The value was “all eight patients”.

Q: What about the “Sustained improvement in seizure frequency” value (KCNQ2-DEE [1]; patients with at least weekly seizures) of the same compound?
A: Its value is “five of the six”.

Q: What about the anti-convulsant activity (rodent seizure models) of the same compound?
A: The anti-convulsant activity was “broad spectrum activity”.

Q: And the serious adverse effects (KCNQ2-DEE [2]; case report of 11 patients)?
A: Its serious adverse effects is “No serious adverse effects were observed”.

Q: And the “improvement in seizures and/or development” value (KCNQ2-DEE [2]; infants treated before six months of age)?
A: The value was “three of the four”.

Q: And the “improvement in seizures and/or development” value (KCNQ2-DEE [2]; patients treated later than six months of age)?
A: Its value is “two of the seven”.
